# Reference: US6545007B2, “Methods for inhibiting the transmission of HIV using topically applied substituted 6-benzyl-4-oxopyrimidines” (Idenix (Cayman) Limited, priority 2000, dated 2003)
# Read-outs that look alike come from different tables or passages of the source.
# What was measured:
# HIV-1 = conditions: MT-4 cells infected with very high virus load; p24 ELISA of cell-free supernatants at 4 day intervals for 4 weeks
# Text: To evaluate the antiviral activity of test compounds the following cell types were used: T lymphocytes (PBLs) and monocytes from peripheral blood of healthy donors; U937, human monocyte cell line permissive for HIV replication; C8166 and MT-4, human CD^4+ T-cell lines permissive for HIV replication; H9, human CD4+ T-cell line permissive for HIV replication, but partially resistant to its cytopathic effect; H9/IIIB, subclone of H9 cells chronically infected with HIV-1 (strain IIIB). […] Cells were grown in RPMI-1640 (H9, MT-4, C8166, U937, PBMC, PBL) or in DMEM (HeLa, ME-180, fibroblasts) medium supplemented with 10% FCS, 100 units/mL penicillin and 100 μg/mL streptomycin. The cultures were incubated at 37° C. in a humidified, 5% CO2 atmosphere. The absence of mycoplasma contamination was periodically checked by the Hoechst staining method.
# HIV-1(strains IIIB, NM, RF, Ba-L) and HIV-2 (ROD strain) were obtained from the supernatant of persistently infected cells. The CBL-20 strain of HIV-2, kindly obtained from “MRC AIDS Directed Program Reagent Project”, was propagated in MT-4 cells. Clinical isolates of HIV-1 from peripheral blood and from seminal fluid, were propagated in PBLs. The HIV stock solutions were titrated in C8166 cells and kept at −80° C. until use.
# The levels of p24 viral protein were determined in the cell-free culture supernatants by the HIV-1 p24 antigen enzyme-linked immunosorbent assay kit (ELISA, Abbott).
# To evaluate the ability of compounds to extinguish the infection, the following experimental conditions were followed. 10^6 MT-4 cells were infected at 20° C. for 1 hr with a very high virus load (up to 10 CCID50/cell; 1 CCID50=25-250 infectious virions), in the absence or in the presence of test compounds. […] For 4 weeks, at 4 days intervals, the anti-HIV activity of test compounds, alone and in combination, was evaluated by determining the following parameters: p24 levels; virus-induced cytopathogenicity; infectious virus yield; DNA and RNA viral sequences (by PCR).
# HIV-1 (IIIB strain) = type: cell-based; conditions: for EC50: anti-HIV-1 activity; for SI: selectivity index (CC50/EC50)
# Outline: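 MT-4 cells (1×10^4/well) were infected with 100 CCID50 HIV-1 IIIB in presence of compound and incubated 4 days at 37 °C. Protection from virus-induced cytopathicity was scored by MTT viability, with cytotoxicity measured in parallel on mock-infected cells.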
# mock-infected MT-4 cells = assay: Cytotoxicity: viability of mock-infected cells by the MTT method; type: cell-based, human
# Outline: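 Mock-infected MT-4 cells (1×10^4 per well) in RPMI 1640 with 10% FCS exposed to various compound concentrations for 4 days at 37° C, 5% CO2, in parallel with the antiviral assay. Viable cells counted by MTT method.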
# [1] = acutely infected MT-4 cells, MTT
Compound,EC50 (HIV-1 (IIIB strain); HIV-1-infected MT-4 cells),concentration able to maintain a sustained reduction of p24 in the culture supernatants (HIV-1),SI (HIV-1 (IIIB strain)),CC50 (mock-infected MT-4 cells),EC50 (HIV-1 (IIIB strain); [1]),CC50 (mock-infected MT-4 cells; MTT)
"Cc1ccnc2c1NC(=O)c1cccnc1N2C1CC1 [Nevirapine, 11-cyclopropyl-5,11-dihydro-4-methyl-6H-dipyridol{3,2-b:2′,3′-e}diazepin-6-one, reference compound]",,300 µM,,,,
"Cc1c(C(C)c2c(F)cccc2F)nc(SC2CCCC2)[nH]c1=O (stereo not shown) [MC-1047, 2-Cyclopentylthio-6-{1-(2,6-difluorophenyl)ethyl}-3,4-dihydro-5-methylpyrimidin-4(3H)-one]",0.009 µM,10 µM,">22,222",> 200 µM,,
Cc1c(C(C)c2c(F)cccc2F)nc(N(C)C)[nH]c1=O (stereo not shown) [MC 1220],,3.5 µM,,,,
CC1CCC(C)C(Oc2nc(Cc3ccccc3)cc(=O)[nH]2)C1 (stereo not shown) [MC 507],3.5 µM,,40,143 µM,,
"CSCSc1nc(Cc2c(F)cccc2F)cc(=O)[nH]1 [MC 1161, 6-(2,6-Difluorophenyhnethyl)-3,4-dihydro-2-(methylthiomethyl)thiopyrimidin-4-(3H)-one]",,,,,0.8 µM,> 200 µM
CC(c1cc(=O)[nH]c(SC2CCCCC2)n1)c1c(Cl)cccc1Cl (stereo not shown) [MC 1016],2.9 µM,,>69,> 200 µM,,
CCCCNc1nc(Cc2c(F)cccc2F)c(C)c(=O)[nH]1 [MC 1185],,,,,0.02 µM,> 200 µM
CCC(C)Sc1nc(Cc2ccc([N+](=O)[O-])cc2)c(C)c(=O)[nH]1 (stereo not shown) [MC 924],2 µM,,>100,> 200 µM,,

# Further lines, with some results ahead:
EC50 (HIV-1 (IIIB strain); HIV-1-infected MT-4 cells),Compound,concentration able to maintain a sustained reduction of p24 in the culture supernatants (HIV-1),SI (HIV-1 (IIIB strain)),CC50 (mock-infected MT-4 cells),EC50 (HIV-1 (IIIB strain); [1]),CC50 (mock-infected MT-4 cells; MTT)
0.05 µM,CCC(c1cc(=O)[nH]c(SC2CCCCC2)n1)c1c(F)cccc1F (stereo not shown) [MC 1014],,"2,600",130 µM,,
25 µM,CCC(C)Sc1nc(Cc2ccc(C(F)(F)F)cc2)cc(=O)[nH]1 (stereo not shown) [MC 959],,8,200 µM,,
0.1 µM,CCc1c(Cc2c(F)cccc2F)nc(SC(C)CC)[nH]c1=O (stereo not shown) [MC 1038],,">2,000",> 200 µM,,
0.04 µM,CSc1nc(C(C)c2c(F)cccc2F)c(C)c(=O)[nH]1 (stereo not shown) [MC 1060],,">5,000",> 200 µM,,
0.8 µM,COCCNc1nc(Cc2c(F)cccc2F)cc(=O)[nH]1 [MC 1043],,>250,> 200 µM,,
20 µM,O=c1cc(Cc2c(F)cccc2F)nc(OC2CCCC2)[nH]1 [MC 1103],,>10,> 200 µM,,
